1 substance from patent US8309790B2, “Animal models for demyelination disorders” (University of Chicago, priority 2005, dated 2012) can be followed below.

For the data set, the system named is CNS of 14-day-old double transgenic mice. The experiment in a line: Ectopic expression of IFN-γ in the CNS during development (released from doxycycline at E14), PERK+/+ or PERK+/− background. In kind it is in vivo. The text has this:
To study the effect of INF-γ on the myelination of oligodendrocytes during mouse development, transgenic mice that allow for temporally regulated delivery of IFN-γ to the CNS using the tetracycline (tet) controllable system (Lin, et al. (2004) J. Neurosci. 24: 10074-10083) were generated. To drive tTA expression in astrocytes, the transcriptional regulatory region of the glial fibrillary acidic protein (GFAP) gene was chosen (Brenner, et al. (1994) J. Neurosci. 14: 1030-1037). GFAP/tTA mice were mated with TRE/IFN-γ mice to produce animals hemizygous for both transgenes. When these mice are maintained on doxycycline (DOX+), expression of the IFN-γ transgene is repressed (FIG. 10A); when the double transgenic mice are released from doxycycline (DOX−) INF-γ is expressed. For the purpose of these experiments, mice received doxycycline up to day 14 of development (E14), at which time the experimental animals (DOX−) stopped receiving doxycycline, while the control animals (DOX+) were continuosly fed the dug. The mRNA for IFN-γ could be detected in the DOX− mice as early as 10 days after birth (data not shown).
Real time PCR analysis was performed to determine the levels of expression of INF-γ, MHC-1, BIP, CHOP, and caspase 12. The primers for the PCR reactions for BIP, CHP and caspase 12 are given in example 1. The sense and antisense primers for INF-γ were […] (SEQ ID NO: 39) and […] (SEQ ID NO: 40), respectively; and the sense and antisense primers for MHC-1 were MHC-I sense primer: ATTCCCCAAAGGCCCATGT (SEQ ID NO: 1); and MHC-I antisense primer: […] (SEQ ID NO: 2).
Western blot analysis was performed on the CNS of 14 day old mice to determine the expression of caspase-12 as described in Example 6.
Brain and spinal cord tissue were analyzed using immunohistochemical methods as follows. Anesthetized mice were perfused through the left cardiac ventricle with 4% paraformaldehyde in 0.1M PBS. The half-saggital brains and transcervical spinal cord were removed, postfixed with paraformaldehyde, cryopreserved in 30% sucrose, embedded in OCT and frozen on dry ice. Frozen sections were cut in a cryostat at a thickness of 10 μm. Coronal sections at the fornix region of the corpus callosum corresponding to Sidman sections 241-251 were selected for use, and all comparative analyses were restricted to midline corpus callosum (Sidman, et al. (1971) Atlas of the Mouse Brain and Spinal Cord (Harvard Univ. Press, Cambridge, Mass.). For immunohistochemistry, frozen sections were treated with −20° C. acetone, blocked with PBS containing 10% NGS and 0.1% Triton X-100 and incubated overnight with the primary antibody diluted in blocking solution. Appropriate fluorochrome- or enzyme-labeled secondary antibodies (Vector Laboratories, Burlingame, Calif.) were used for detection. An antibody against CC1 (APC7, 1:50; EMD Biosciences, Inc., La Jolla, Calif.) was used as a marker for mature oligodendrocytes. Antibody against MBP (1:1000; Stemberger Monoclonals, Lutherville, […].) was used to verify the degree of myelination. Antibody against active-caspase-3 (1:50, Cell signaling Technology, Beverly, Mass.) was used as a marker for apoptotic cells. Fluorescent stained sections were mounted with Vectashield mounting medium with DAPI (Vector Laboratories) and visualized with a Zeiss Axioplan fluorescence microscope. Images were captured using a Photometrics PXL CCD camera connected to an Apple Macintosh computer using the Open Lab software suite. Immunopositive cells were quantified by counting positive cells within the median of the corpus callosum, confined to an area of 0.04 mm^2. Only those cells with nuclei observable by DAPI staining were counted. Each MBP immunostaining slide was scored on a scale of zero to four. A score of zero indicates complete demyelination, and a score of four indicates normal myelination in the corpus callosum of adult mice. […]

[1] abbreviates: CNS, PND 14, DOX− released at E14, real-time PCR.

As for interferon-γ [IFN-γ], the caspase-12 expression result (CNS, PND 14, DOX− released at E14) is recorded as “strongly enhanced”. Also, the BIP expression result under setting [1] is on record as “approximately 1.6 times the control levels”. Further, the CHOP expression under setting [1] was roughly 2 times the control levels. Besides, the “mice that experienced tonic seizures” value (E14 DOX− PERK+/−) is “approximately two-thirds”. In addition, the “decrease of oligodendrocyte numbers in the spinal cord” value (IFN-γ expressing mice on a PERK+/− background, 14-day-old, CC1) is given as “more than 50%”. The “unmyelinated axons in the spinal cord” value (PERK+/− mice that express IFN-γ in the CNS, 14-day-old) is recorded as 81%±14.9% and the “unmyelinated axons in the spinal cord” value (wild-type background, released from doxycycline at E14) is 30%±12.9%. Besides, for the setting “released from doxycycline at E14”, the “number of TUNEL positive oligodendrocytes in the cervical spinal cord, PERK+/− relative to wild-type background” value turned out to be 2.5 times. For the same substance, the “mice that died by post natal day (PND) 27” value (released from doxycycline at E14, PERK+/− background) is reported as “more than 90%”. Besides, for the setting “released from doxycycline at E14, wild-type background”, the survival result is “normal survival”.
